Measured values: the supplement of paper PMC10307832

Columns and labels:
Assay in all cases: relative viability (nuclei count vs DMSO), 5 days (fraction); higher = more cells survive
[1] = system: NCI-H1437
In short: (§1)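 Cells from lung cancer lines were seeded into 1536-well plates and, one day later, dosed by pin tool. Treatments were either a single drug or a fixed dose of an anchor drug with five library-drug doses (not always all listed) in √10 steps. After 5 days, nuclei were stained in a one-step fixation (final 0.05% Triton X-100, 1% formaldehyde, 1 ug/ml Hoechst) and counted on 4× images, and relative viability is the treated-to-vehicle nuclei ratio, as the median of duplicate plates.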

[2] = system: SK-MES-1
In short: as §1

[3] = system: LXF-289
In short: as §1

[4] = system: NCI-H1355
In short: as §1

[5] = system: HCC-827
In short: as §1

[6] = system: RERF-LC-KJ
In short: as §1

[7] = system: NCI-H647
In short: as §1

[8] = system: NCI-H661
In short: as §1

[9] = system: NCI-H2126
In short: as §1

[10] = system: PC-14
In short: as §1

[11] = system: NCI-H1993
In short: as §1

[12] = system: EKVX
In short: as §1

[13] = system: BEN
In short: as §1

[14] = system: NCI-H727
In short: as §1

[15] = system: NCI-H2170
In short: as §1

[16] = system: LK-2
In short: as §1

[17] = system: NCI-H1944
In short: as §1

[18] = system: NCI-H1666
In short: as §1

[19] = system: LOU-NH91
In short: as §1

[20] = system: LCLC-103H
In short: as §1

[21] = system: ChaGo-K-1
In short: as §1

[22] = system: HOP-62
In short: as §1

[23] = system: NCI-H441
In short: as §1

Compound: CN1CCN(CCOc2cc(OC3CCOCC3)c3c(Nc4c(Cl)ccc5c4OCO5)ncnc3c2)CC1 [Saracatinib] + N=C(N)NC(=N)NCCc1ccccc1 [Phenformin] (partner 250 µM)
- relative viability ([1]; first compound 0.02 µM): 0.375
- relative viability ([1]; first compound 0.2 µM): 0.345
- relative viability ([1]; first compound 0.6325 µM): 0.329
- relative viability ([1]; first compound 2 µM): 0.27
- relative viability ([2]; first compound 0.02 µM): 0.65
- relative viability ([2]; first compound 0.2 µM): 0.613
- relative viability ([2]; first compound 0.6325 µM): 0.613
- relative viability ([2]; first compound 2 µM): 0.634
- relative viability ([3]; first compound 0.02 µM): 0.546
- relative viability ([3]; first compound 0.2 µM): 0.486
- relative viability ([3]; first compound 0.6325 µM): 0.506
- relative viability ([3]; first compound 2 µM): 0.458
- relative viability ([4]; first compound 0.02 µM): 0.453
- relative viability ([4]; first compound 0.2 µM): 0.397
- relative viability ([4]; first compound 0.6325 µM): 0.453
- relative viability ([4]; first compound 2 µM): 0.407
- relative viability ([5]; first compound 0.02 µM): 0.4
- relative viability ([5]; first compound 0.2 µM): 0.221
- relative viability ([5]; first compound 0.6325 µM): 0.134
- relative viability ([5]; first compound 2 µM): 0.144
- relative viability ([6]; first compound 0.02 µM): 0.445
- relative viability ([6]; first compound 0.2 µM): 0.401
- relative viability ([6]; first compound 0.6325 µM): 0.313
- relative viability ([6]; first compound 2 µM): 0.361
- relative viability ([7]; first compound 0.02 µM): 0.584
- relative viability ([7]; first compound 0.2 µM): 0.362
- relative viability ([7]; first compound 0.6325 µM): 0.5
- relative viability ([7]; first compound 2 µM): 0.308
- relative viability ([8]; first compound 0.02 µM): 0.282
- relative viability ([8]; first compound 0.2 µM): 0.271
- relative viability ([8]; first compound 0.6325 µM): 0.233
- relative viability ([8]; first compound 2 µM): 0.236
- relative viability ([9]; first compound 0.02 µM): 0.537
- relative viability ([9]; first compound 0.2 µM): 0.522
- relative viability ([9]; first compound 0.6325 µM): 0.524
- relative viability ([9]; first compound 2 µM): 0.473
- relative viability ([10]; first compound 0.02 µM): 0.646
- relative viability ([10]; first compound 0.2 µM): 0.441
- relative viability ([10]; first compound 0.6325 µM): 0.256
- relative viability ([10]; first compound 2 µM): 0.124
- relative viability ([11]; first compound 0.02 µM): 0.524
- relative viability ([11]; first compound 0.2 µM): 0.529
- relative viability ([11]; first compound 0.6325 µM): 0.512
- relative viability ([11]; first compound 2 µM): 0.555
- relative viability ([12]; first compound 0.02 µM): 0.26
- relative viability ([12]; first compound 0.6325 µM): 0.211
- relative viability ([12]; first compound 2 µM): 0.189
- relative viability ([13]; first compound 0.02 µM): 0.292
- relative viability ([13]; first compound 0.6325 µM): 0.253
- relative viability ([13]; first compound 2 µM): 0.209
- relative viability ([14]; first compound 0.02 µM): 0.535
- relative viability ([14]; first compound 0.2 µM): 0.238
- relative viability ([14]; first compound 0.6325 µM): 0.465
- relative viability ([14]; first compound 2 µM): 0.316
- relative viability ([15]; first compound 0.02 µM): 0.396
- relative viability ([15]; first compound 0.2 µM): 0.332
- relative viability ([15]; first compound 0.6325 µM): 0.352
- relative viability ([15]; first compound 2 µM): 0.295
- relative viability ([16]; first compound 0.02 µM): 0.545
- relative viability ([16]; first compound 0.2 µM): 0.368
- relative viability ([16]; first compound 0.6325 µM): 0.313
- relative viability ([16]; first compound 2 µM): 0.314
- relative viability ([17]; first compound 0.02 µM): 0.227
- relative viability ([17]; first compound 0.6325 µM): 0.161
- relative viability ([17]; first compound 2 µM): 0.141
- relative viability ([18]; first compound 0.02 µM): 0.562
- relative viability ([18]; first compound 0.2 µM): 0.566
- relative viability ([18]; first compound 0.6325 µM): 0.642
- relative viability ([18]; first compound 2 µM): 0.588
- relative viability ([19]; first compound 0.02 µM): 0.648
- relative viability ([19]; first compound 0.2 µM): 0.47
- relative viability ([19]; first compound 0.6325 µM): 0.553
- relative viability ([19]; first compound 2 µM): 0.403
- relative viability ([20]; first compound 0.02 µM): 0.337
- relative viability ([20]; first compound 0.2 µM): 0.354
- relative viability ([20]; first compound 0.6325 µM): 0.37
- relative viability ([20]; first compound 2 µM): 0.314
- relative viability ([21]; first compound 0.02 µM): 0.564
- relative viability ([21]; first compound 0.2 µM): 0.314
- relative viability ([21]; first compound 0.6325 µM): 0.447
- relative viability ([21]; first compound 2 µM): 0.381
- relative viability ([22]; first compound 0.02 µM): 0.661
- relative viability ([22]; first compound 0.2 µM): 0.629
- relative viability ([22]; first compound 0.6325 µM): 0.593
- relative viability ([22]; first compound 2 µM): 0.623
- relative viability ([23]; first compound 0.02 µM): 0.768
- relative viability ([23]; first compound 0.2 µM): 0.733
- relative viability ([23]; first compound 0.6325 µM): 1.17
- relative viability ([23]; first compound 2 µM): 0.819
